Target: T1, human orexin type 2 receptor (Homo sapiens, UniProt O43614)
T1 construct: expressed in transfected cells
T1 sequence (O43614 1-444): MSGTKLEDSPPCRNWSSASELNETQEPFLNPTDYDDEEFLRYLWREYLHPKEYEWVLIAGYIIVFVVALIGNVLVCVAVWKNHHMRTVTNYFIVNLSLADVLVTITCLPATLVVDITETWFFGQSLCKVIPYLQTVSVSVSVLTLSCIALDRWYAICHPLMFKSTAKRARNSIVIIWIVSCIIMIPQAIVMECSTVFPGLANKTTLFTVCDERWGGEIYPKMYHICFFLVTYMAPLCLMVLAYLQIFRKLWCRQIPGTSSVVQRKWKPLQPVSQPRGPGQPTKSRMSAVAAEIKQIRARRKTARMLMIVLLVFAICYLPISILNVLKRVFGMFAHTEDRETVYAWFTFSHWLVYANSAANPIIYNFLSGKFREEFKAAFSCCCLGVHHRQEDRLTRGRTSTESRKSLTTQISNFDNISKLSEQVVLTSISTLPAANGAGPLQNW
Assay: Measurement of orexin type 2 receptor agonist activity (calcium indicator fluorescence, CHO cells forcibly expressing human OX2 receptor)
Type: cell-based
Conditions: compound at 3 μM; 0% = DMSO, 100% = orexin A (human) 10 nM
How it was run: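 CHO-dhfr cells stably expressing human OX2R, loaded with Fluo-4 AM (30 min 37 °C, then 30 min RT), then given test compound. Calcium fluorescence read by FDSS over ~2 min. Activity (%) scaled from DMSO (0%) to 10 nM final orexin A (100%).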

| Structure (SMILES) | OX2R agonist activity (3 μM, %) [%] |
| --- | --- |
| CCS(=O)(=O)N[C@H]1[C@@H](F)CN(C(=O)C(C)C)[C@H]1Cc1cccc(-c2cc(F)cc(F)c2)c1F [Example 296, N-{(2S,3R,4S)-4-fluoro-1-(2-methylpropanoyl)-2-[(2,3′,5′-trifluoro[1,1′-biphenyl]-3-yl)methyl]pyrrolidin-3-yl}ethanesulfonamide] | 96 |
| CN(C)S(=O)(=O)N[C@H]1[C@@H](F)CN(C(=O)N2CCC2)[C@H]1Cc1cccc(-c2cc(F)cc(F)c2)c1F [Example 458, N′-{(2S,3R,4S)-1-(azetidine-1-carbonyl)-4-fluoro-2-[(2,3′,5′-trifluoro[1,1′-biphenyl]-3-yl)methyl]pyrrolidin-3-yl}-N,N-dimethylsulfuric diamide] | 84 |
| CCS(=O)(=O)N[C@@H]1[C@H](Cc2cccc(-c3cccc(F)c3)c2)N(C(=O)C2CCO2)CC1(F)F (stereo partly drawn) [Example 52, N-[(2S,3R)-4,4-difluoro-2-[(3′-fluoro[1,1′-biphenyl]-3-yl)methyl]-1-(oxetane-2-carbonyl)pyrrolidin-3-yl]ethanesulfonamide] | 100 |
| CC(C)C(=O)N1CC(F)(F)[C@H](NS(C)(=O)=O)[C@@H]1Cc1cccc(-c2cccc(F)c2)c1F [Example 98, N-[(2S,3R)-2-[(2,3′-difluoro[1,1′-biphenyl]-3-yl)methyl]-4,4-difluoro-1-(2-methylpropanoyl)pyrrolidin-3-yl]methanesulfonamide] | 91 |
| CCS(=O)(=O)N[C@@H]1[C@H](Cc2cccc(-c3cccc(C(F)F)c3)c2F)N(C(=O)C2CC(F)C2)CC1(F)F (stereo partly drawn) [Example 506, N-[(2S,3R)-2-{[3′-(difluoromethyl)-2-fluoro[1,1′-biphenyl]-3-yl]methyl}-4,4-difluoro-1-(3-fluorocyclobutane-1-carobnyl)pyrrolidin-3-yl]ethanesulfonamide] | 100 |
| Cc1cc(F)cc(-c2cccc(C[C@H]3[C@@H](NS(=O)(=O)C4CC4)C(F)(F)CN3C(=O)N3CCC3)c2F)c1 [Example 529, N-{(2S,3R)-1-(azetidine-1-carbonyl)-2-[(2,3′-difluroo-5′-methyl[1,1′-biphenyl]-3-yl)methyl]-4,4-difluoropyrrolidin-3-yl}cyclopropanesulfonamide] | 95 |
| CS(=O)(=O)N[C@@H]1[C@H](Cc2csc(-c3cc(F)cc(F)c3)n2)N(C(=O)C2(O)CCC2)CC1(F)F (racemic) [Example 136, rac-N-[(2S,3R)-2-{[2-(3,5-difluorophenyl)-1,3-thiazol-4-yl]methyl}-4,4-difluoro-1-(1-hydroxycyclobutane-1-carbonyl)pyrrolidin-3-yl]methanesulfonamide] | 87 |
| CS(=O)(=O)N[C@@H]1[C@H](Cc2cccc(-c3cccc(F)c3)c2F)N(C(=O)C2(O)CCC2)CC1(F)F [Example 13, N-[(2S,3R)-2-[(2,3′-difluoro[1,1′-biphenyl]-3-yl)methyl]-4,4-difluoro-1-(1-hydroxycyclobutane-1-carbonyl)pyrrolidin-3-yl]methanesulfonamide] | 93 |
| CS(=O)(=O)N[C@@H]1[C@H](Cc2cccc(-c3cccc(F)c3)c2F)N(C(=O)C2CC(F)C2)CC1(F)F (stereo partly drawn) [Example 393, N-[(2S,3R)-2-[(2,3′-difluoro[1,1′-biphenyl]-3-yl)methyl]-4,4-difluoro-1-(3-fluorocyclobutane-1-carbonyl)pyrrolidin-3-yl]methanesulfonamide] | 94 |
| CCS(=O)(=O)N[C@@H]1[C@H](Cc2cccc(-c3ccc(F)c(C)c3)c2F)N(C(=O)C(C)(C)O)CC1(F)F [Example 466, N-[(2S,3R)-2-[(2,4′-difluoro-3′-methyl[1,1′-biphenyl]-3-yl)methyl]-4,4-difluoro-1-(2-hydroxy-2-methylpropanoyl)pyrrolidin-3-yl]ethanesulfonamide] | 103 |
| CCS(=O)(=O)N[C@@H]1[C@H](Cc2cccc(-c3cc(C)cc(F)c3)c2F)N(C(=O)N2CCC2)CC1(F)F [Example 444, N-{(2S,3R)-1-(azetidine-1-carbonyl)-2-[(2,3′-difluoro-5′-methyl[1,1′-biphenyl]-3-yl)methyl]-4,4-difluoropyrrolidin-3-yl}ethanesulfonamide] | 98 |
| CCS(=O)(=O)N[C@@H]1[C@H](Cc2cccc(-c3cccc(OC)c3)c2F)N(C(=O)C2(O)CCC2)CC1(F)F [Example 513, N-[(2S,3R)-4,4-difluoro-2-[(2-fluoro-3′-methoxy[1,1′-biphenyl]-3-yl)methyl]-1-(1-hydroxycyclobutane-1-carbonyl)pyrrolidin-3-yl]ethanesulfonamide] | 97 |
| CS(=O)(=O)N[C@@H]1[C@H](Cc2cccc(-c3cccc(F)c3)c2F)N(C(=O)N2CCC2)CC1(F)F [Example 11, N-{(2S,3R)-1-(azetidine-1-carbonyl)-2-[(2,3′-difluoro[1,1′-biphenyl]-3-yl)methyl]-4,4-difluoropyrrolidin-3-yl}methanesulfonamide] | 85 |
| CCS(=O)(=O)N[C@@H]1[C@H](Cc2cccc(-c3cc(F)ccc3F)c2F)N(C(=O)C2CCO2)CC1(F)F (stereo partly drawn) [Example 356, N-{(2S,3R)-4,4-difluoro-1-(oxetane-2-carbonyl)-2-[(2,2′,5′-trifluoro[1,1′-biphenyl]-3-yl)methyl]pyrrolidin-3-yl}ethanesulfonamide] | 97 |

Results, then the compound that gave them:

| OX2R agonist activity (3 μM, %) [%] | Structure (SMILES) |
| --- | --- |
| 100 | Cc1cccc(-c2cccc(C[C@H]3[C@@H](NS(=O)(=O)C4CC4)[C@@H](F)CN3C(=O)C3(O)CCC3)c2F)c1 [Example 537, N-[(2S,3R,4S)-4-fluoro-2-[(2-fluoro-3′-methyl[1,1′-biphenyl]-3-yl)methyl]-1-(1-hydroxycyclobutane-1-carbonyl)pyrrolidin-3-yl]cyclopropanesulfonamide] |
| 95 | O=C(C1CCO1)N1C[C@H](F)[C@H](NS(=O)(=O)C2CC2)[C@@H]1Cc1cccc(-c2ccccc2)c1F (stereo partly drawn) [Example 496, N-[(2S,3R,4S)-4-fluoro-2-[(2-fluoro[1,1′-biphenyl]-3-yl)methyl]-1-(oxetane-2-carbonyl)pyrrolidin-3-yl]cyclopropanesulfonamide] |
| 100 | O=C(C1CCO1)N1C[C@H](F)[C@H](NS(=O)(=O)C2CC2)[C@@H]1Cc1cccc(-c2ccccc2)c1F (stereo partly drawn) [Example 482, N-[(2S,3R,4S)-4-fluoro-2-[(2-fluoro[1,1′-biphenyl]-3-yl)methyl]-1-(oxetane-2-carbonyl)pyrrolidin-3-yl]cyclopropanesulfonamide] |
| 101 | CCS(=O)(=O)N[C@H]1[C@@H](F)CN(C(=O)[C@H]2CCCO2)[C@H]1Cc1cccc(-c2cc(F)ccc2F)c1F [Example 416, N-{(2S,3R,4S)-4-fluoro-1-[(2R)-oxolane-2-carbonyl]-2-[(2,2′,5′-trifluoro[1,1′-biphenyl]-3-yl)methyl]pyrrolidin-3-yl}ethanesulfonamide] |
| 100 | CCS(=O)(=O)N[C@@H]1[C@H](Cc2cccc(-c3ccccc3)c2F)N(C(=O)C2(O)CCC2)CC1(F)F [Example 23, N-[(2S,3R)-4,4-difluoro-2-[(2-fluoro[1,1′-biphenyl]-3-yl)methyl]-1-(1-hydroxycyclobutane-1-carbonyl)pyrrolidin-3-yl]ethanesulfonamide] |
| 95 | CCS(=O)(=O)N[C@@H]1[C@H](Cc2cccc(-c3cccc(F)c3F)c2)N(C(=O)C2CCO2)CC1(F)F (stereo partly drawn) [Example 175, N-[(2S,3R)-2-[(2′,3′-difluoro[1,1′-biphenyl]-3-yl)methyl]-4,4-difluoro-1-(oxetane-2-carbonyl)pyrrolidin-3-yl]ethanesulfonamide] |
| 101 | Cc1cc(F)cc(-c2cccc(C[C@H]3[C@@H](NS(=O)(=O)C4CC4)C(F)(F)CN3C(=O)[C@H]3CCO3)c2F)c1 [Example 533, N-{(2S,3R)-2-[(2,3′-difluoro-5′-methyl[1,1′-biphenyl]-3-yl)methyl]-4,4-difluoro-1-[(2R)-oxetane-2-carbonyl]pyrrolidin-3-yl}cyclopropanesulfonamide] |
| 95 | CS(=O)(=O)N[C@H]1[C@@H](F)CN(C(=O)C23CC(C2)C3)[C@H]1Cc1cccc(-c2cccc(F)c2)c1F [Example 231, N-{(2S,3R,4S)-1-(bicyclo[1.1.1]pentane-1-carbonyl)-2-[(2,3′-difluoro[1,1′-biphenyl]-3-yl)methyl]-4-fluoropyrrolidin-3-yl}methanesulfonamide] |
| 94 | CCS(=O)(=O)N[C@@H]1[C@H](Cc2cccc(-c3cccc(Cl)c3)c2F)N(C(=O)C2CCO2)CC1(F)F (stereo partly drawn) [Example 268, N-[(2S,3R)-2-[(3′-chloro-2-fluoro[1,1′-biphenyl]-3-yl)methyl]-4,4-difluoro-1-(oxetane-2-carbonyl)pyrrolidin-3-yl]ethanesulfonamide] |

Reference: US20230040770A1, “HETEROCYCLIC COMPOUND AND USE THEREOF” (TAKEDA PHARMACEUTICAL COMPANY LIMITED, priority 2019, published 2023)
